{
  "source": "patent US11339165B2",
  "about": "“Pyrazolopyrimidines having activity against the respiratory syncytial virus (RSV)” (priority 2017, dated 2022)",
  "key": {"rgRSV224 virus": {"tested_on": "rgRSV224 virus", "assay": "Antiviral activity: rgRSV224 (GFP) replication in HeLa cells", "assay_type": "cell-based, respiratory syncytial virus (RSV)"}, "HeLa cells [1]": {"tested_on": "HeLa cells"}, "HeLa cells [2]": {"tested_on": "HeLa cells", "assay": "Cytotoxicity in HeLa cells (ATP content, ATPlite kit)", "conditions": "read-out: TOX HELA CC50; HeLa cells, three days incubation, ATP content"}, "[3]": {"assay": "Cytotoxicity in HeLa cells (ATP content, ATPlite kit)", "conditions": "human"}, "in vitro": {"assay": "in vitro", "conditions": "human, TOX HELA CC50 (μM)"}, "[4]": {"assay": "Pharmacokinetics after single intravenous administration in the fasted male Beagle dog", "assay_type": "in vivo", "conditions": "intravenous administration at 1 mg/kg in dogs, first 8 hours after administration", "description": "E.2 Pharmacokinetics after Single Intravenous Administration in the Fasted Male Beagle Dog\nThe test compound was dissolved in a 20% (w/v) hydroxypropyl-β-cyclodextrin (HP-beta-CD) solution at a final concentration of 2 mg/mL for the intravenous formulation. NaOH was added to the formulations to facilitate dissolution and after total dissolution the pH was adjusted with HCl to 8.4. The intravenous (IV) formulation was made isotonic with mannitol. Prior to dosing, all formulations were stored at room temperature and protected from light. The IV formulation was dosed in a cephalic vein at 0.5 mL/kg to obtain a final dose of 1 mg/kg.\nThree male Beagle dogs, with a mean weight of 10.9±1.1 kg, were used. A complete concentration time profile was obtained from each individual animal. Prior to dosing, animals were fasted overnight. Their standard dry diet was returned to them at 2 hours post dose. Tap water was available ad libitum.\nFrom each individual animal, blood samples were taken at 7 and 20 minutes, 1, 2, 4, 7, 24 and 48 hours after intravenous dose administration. […] Plasma samples were analysed using a qualified research LC-MS/MS method. The key analytical performance (linearity, upper and lower limit of quantification, accuracy and precision) of the method was reported together with the plasma concentrations. The lower limit of quantification (LLOQ) was 10.0 ng/mL. […]"}, "[5]": {"conditions": "rgRSV224 virus (MOI=1), HeLa cells, GFP expression three days post-virus exposure, read-out: RSV HELA EC50"}, "[6]": {"conditions": "human respiratory syncytial virus, HeLa, 72 h, read-out: RSV HELA EC50 (μM), rgRSV224 virus (MOI=1), HeLa cells, GFP expression three days post-virus exposure"}},
  "note": "Where two headings read alike, the source gives them in different places.",
  "data": [
    {"smiles": "C[C@@H]1c2ccccc2CCN1C(=O)c1cc(C2CC2)n2nc(-c3ccc(N4CCC(O)(CO)C4)cc3F)cc2n1", "note": "(single isomer, unassigned) [Compound 104]", "values": [
      {"measurement": "EC50", "setting": "rgRSV224 virus; read-out: RSV HELA EC50, rgRSV224 virus (MOI=1), HeLa cells, GFP expression three days post-virus exposure", "result": 0.025, "unit": "µM"},
      {"measurement": "CC50", "setting": "HeLa cells [1]; human, 3 days", "result": 28.2, "unit": "µM"}
    ]},
    {"smiles": "C[C@@H]1c2ccccc2CCN1C(=O)c1cc(C2CC2)n2nc(-c3ccc(N4C[C@@H](C(N)=O)C[C@H]4C)cc3F)cc2n1", "note": "(relative stereo) [Compound 34, (3*S,5*R)-1-(4-{7-cyclopropyl-5-[(1R)-1-methyl-1,2,3,4-tetrahydroisoquinoline-2-carbonyl]pyrazolo[1,5-a]pyrimidin-2-yl}-3-fluorophenyl)-5-methylpyrrolidine-3-carboxamide]", "values": [
      {"measurement": "EC50", "setting": "rgRSV224 virus; [5]", "result": 0.037, "unit": "µM"},
      {"measurement": "CC50", "setting": "HeLa cells [2]", "result": 23.1, "unit": "µM"}
    ]},
    {"smiles": "C[C@@H]1c2ccccc2CCN1C(=O)c1cc(C2CC2)n2nc(-c3ccc(N4CC[C@@H](NP(C)(C)=O)C4)cc3F)cc2n1", "note": "[Compound 30, (1R)-2-(7-Cyclopropyl-2-{4-[(3R)-3-[(dimethylphosphoryl)amino]pyrrolidin-1-yl]-2-fluorophenyl}pyrazolo[1,5-a]pyrimidine-5-carbonyl)-1-methyl-1,2,3,4-tetrahydro-isoquinoline]", "values": [
      {"measurement": "EC50", "setting": "rgRSV224 virus; [6]", "result": 0.036, "unit": "µM"},
      {"measurement": "CC50 at 3 days", "setting": "[3]", "result": 33.9, "unit": "µM"}
    ]},
    {"smiles": "CNC(=O)[C@H]1CCN(c2ccc(-c3cc4nc(C(=O)N5CCc6ccccc6[C@H]5C)cc(C5CC5)n4n3)c(F)c2)C1", "note": "[Compound 37, (3S)-1-(4-{7-Cyclopropyl-5-[(1R)-1-methyl-1,2,3,4-tetrahydroisoquinoline-2-carbonyl]pyrazolo[1,5-a]pyrimidin-2-yl}-3-fluorophenyl)-N-methylpyrrolidine-3-carboxamide]", "values": [
      {"measurement": "EC50", "setting": "rgRSV224 virus; [6]", "result": 0.019, "unit": "µM"},
      {"measurement": "CC50 at 3 days", "setting": "in vitro", "result": 62, "unit": "µM"},
      {"measurement": "melting point", "result": 123.18, "unit": "°C"},
      {"measurement": "plasma concentration profile", "setting": "[4]", "result": "does not show this rapid decline"}
    ]},
    {"smiles": "C[C@@H]1c2ccccc2CCN1C(=O)c1cc(C2CC2)n2nc(-c3ccc(N4CC[C@H](NP(C)(C)=O)C4)cc3F)cc2n1", "note": "[Compound 31, (1R)-2-(7-Cyclopropyl-2-{4-[(3S)-3-[(dimethylphosphoryl)amino]pyrrolidin-1-yl]-2-fluorophenyl}pyrazolo[1,5-a]pyrimidine-5-carbonyl)-1-methyl-1,2,3,4-tetrahydro-isoquinoline]", "values": [
      {"measurement": "EC50", "setting": "rgRSV224 virus; [6]", "result": 0.036, "unit": "µM"},
      {"measurement": "CC50 at 3 days", "setting": "[3]", "result": 39.1, "unit": "µM"}
    ]},
    {"smiles": "C[C@@H]1c2ccccc2CCN1C(=O)c1cc(C2CC2)n2nc(-c3ccc(N4C[C@H](O)[C@@H](O)C4)cc3F)cc2n1", "note": "[Compound 102, (7-cyclopropyl-2-(4-((3S,4S)-3,4-dihydroxypyrrolidin-1-yl)-2-fluorophenyl)pyrazolo[1,5-a]pyrimidin-5-yl)((R)-1-methyl-3,4-dihydroisoquinolin-2(1H)-yl)methanone]", "values": [
      {"measurement": "EC50", "setting": "rgRSV224 virus; [6]", "result": 0.026, "unit": "µM"},
      {"measurement": "CC50 at 3 days", "setting": "in vitro", "result": 44.4, "unit": "µM"},
      {"measurement": "plasma concentration profile", "setting": "[4]", "result": "does not show this rapid decline"}
    ]},
    {"smiles": "C[C@@H]1c2ccccc2CCN1C(=O)c1cc(C2CC2)n2nc(-c3ccc(N4C[C@@H](C(N)=O)C[C@@H]4C)cc3F)cc2n1", "note": "(relative stereo) [Compound 35, (3*S,5*S)-1-(4-{7-cyclopropyl-5-[(1R)-1-methyl-1,2,3,4-tetrahydroisoquinoline-2-carbonyl]pyrazolo[1,5-a]pyrimidin-2-yl}-3-fluorophenyl)-5-methylpyrrolidine-3-carboxamide]", "values": [
      {"measurement": "EC50", "setting": "rgRSV224 virus; [5]", "result": 0.033, "unit": "µM"},
      {"measurement": "CC50", "setting": "HeLa cells [1]", "result": 25.5, "unit": "µM"}
    ]}
  ]
}
